Measured values as given in patent US7439243B2, “Piperazinyl-quinoline derivatives useful for the treatment of CNS disorders” (Glaxo Group Limited, priority 2003, dated 2008).
Where a name gives a salt, the structure may show the parent alone. Read-outs that look alike come from different tables or passages of the source.

Target: human cloned 5-HT6 receptors (Homo sapiens, UniProt P50406)
Assay: 5-HT6 receptor affinity (procedures outlined in WO98/27081)
Assay type: binding
From the text: Compounds can be tested following the procedures outlined in WO98/27081.

human cloned 5-HT6 receptors, sequence (P50406 whole entry): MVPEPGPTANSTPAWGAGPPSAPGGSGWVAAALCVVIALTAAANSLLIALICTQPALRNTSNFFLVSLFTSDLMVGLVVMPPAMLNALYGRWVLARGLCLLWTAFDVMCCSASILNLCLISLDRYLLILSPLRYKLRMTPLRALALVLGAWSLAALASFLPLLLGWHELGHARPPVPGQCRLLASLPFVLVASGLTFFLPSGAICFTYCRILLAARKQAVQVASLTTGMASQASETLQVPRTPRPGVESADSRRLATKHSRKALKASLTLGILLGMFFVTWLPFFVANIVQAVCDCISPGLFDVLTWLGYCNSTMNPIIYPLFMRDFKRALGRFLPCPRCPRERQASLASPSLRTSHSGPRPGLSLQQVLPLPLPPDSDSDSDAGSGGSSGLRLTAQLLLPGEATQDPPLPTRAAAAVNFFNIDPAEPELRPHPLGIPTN

Row | Structure (SMILES) | Ki [nM] | Ki (human cloned 5-HT6 receptors, read-out: pKi (converted)) [nM]
1 | Clc1cccc(Cc2cnc3c(N4CCNCC4)cccc3c2)c1 [Example E1, 3-[(3-Chlorophenyl)methyl]-8-(1-piperazinyl)quinoline hydrochloride] | < 31.6 | –
2 | O=C(c1cccc(Cl)c1)c1cnc2c(N3CCNCC3)cccc2c1 [Example E2, (3-Chlorophenyl)[8-(1-piperazinyl)-3-quinolinyl]methanone hydrochloride] | – | < 31.6
